Assays:
Assay type in all cases: cell-based
HL-60 cells [1] = assay: Proliferation, [3H]-thymidine uptake, HL-60; conditions: for mean percentage of proliferation ± SE: 72 h, relative to control
Procedure: (§1) Acute myeloid leukemia cell line HL-60 and multiple myeloma cell lines AMO-1 and KMS-12-PE were obtained from the German Collection of Microorganisms and Cell Cultures (DSMZ), Braunschweig, Germany, and non-tumorigenic stromal cell line HS-5 was acquired from the American Type Culture Collection (ATCC, Manassas, VA, USA). All cell lines were cultured in RPMI 1640 medium without phenol red (Pan Biotech, Aidenbach, Germany), supplemented with 2 mM glutamine, 100 U/mL penicillin, 100 µg/mL streptomycin (Sigma-Aldrich, St. Louis, MO, USA), and 10% fetal bovine serum (FBS Maximus, Catus Biotech GmbH, Tutzing, Germany) at 37 °C in a humidified atmosphere of 5% CO2/95% air. Cells were fed twice weekly. Logarithmically growing cells were resuspended at 1 × 10^5 cells/mL, plated in triplicate in round-bottom 96-well plates (100 µL per well; Falcon, Becton Dickinson, Franklin Lakes, NJ, USA), and incubated at 37 °C in 5% CO2/95% air for 2 h. Subsequently, the compounds were adjusted in the cell culture medium to reach the final concentrations in a total volume of 150 µL and incubated for an additional 72 h. Cell proliferation was assessed by [^3H]-thymidine uptake. Each well was exposed to 2 µCi [^3H]-thymidine (Hartmann Analytic, Braunschweig, Germany) during the final 12–16 h of incubation. Cells were harvested using a semi-automated device, and [^3H]-thymidine incorporation (expressed in counts per minute, cpm) was measured with a scintillation counter (MicroBeta TriLux, PerkinElmer, Waltham, MA, USA). Metabolic activity was assessed by resazurin staining. Resazurin (Carl Roth, Karlsruhe, Germany) was dissolved in distilled water at a concentration of 0.1 mg/mL, and 15 µL of this solution was added to each well, followed by a 2 h incubation at 37 °C. Relative fluorescence units (RFUs) were measured using a Synergy H1 plate reader equipped with a 560 nm excitation/590 nm emission filter set (BioTek; Agilent, Santa Clara, CA, USA). Proliferation and metabolic activity in the absence of compounds were defined as 100% (control), and the values for compound-treated samples were expressed as percentages relative to the control. Selectivity indices were calculated by dividing the IC50 value of each compound against HS-5 cells through the IC50 values against the investigated cell lines.
(§2) The Wilcoxon Rank Sum Test was used to analyze proliferation and metabolic activity in the absence and presence of varying compound concentrations (NCSS 2007 software, version 07.1.2, Kaysville, UT, USA). A p-value < 0.05 was considered statistically significant. IC50 values were calculated using GraphPad Prism 10.1.2. This software reports 95% confidence intervals instead of standard errors. […] Nonetheless, the figures clearly illustrate the IC50 values due to the narrow concentration range tested.

MOLM-13 cells [2] = assay: Proliferation, [3H]-thymidine uptake, MOLM-13; conditions: for mean percentage of proliferation ± SE: 72 h, relative to control
Procedure: [The source words this procedure for another cell line and reports this cell line under the same test.] as §1, §2

AMO-1 cells [3] = assay: Proliferation, [3H]-thymidine uptake, AMO-1; conditions: 72 h, relative to control
Procedure: as §1, §2

KMS-12-PE cells [4] = assay: Proliferation, [3H]-thymidine uptake, KMS-12-PE; conditions: KMS-12 PE, 72 h, relative to control
Procedure: as §1, §2

HL-60 cells [5] = assay: Metabolic activity, resazurin staining, HL-60; conditions: for Metabolic activity, mean percentage ± SE: 72 h, relative to control
Procedure: as §1, §2
(§3) Proliferation inhibition often leads to cell death. Therefore, the cytotoxic activity of the compounds was further evaluated using a modified 3-(4,5-dimethylthiazol-2-yl)-2,5-diphenyltetrazolium bromide (MTT) assay, the resazurin (Alamar Blue) assay. Metabolically active cells reduce the non-fluorescent dye resazurin to the fluorescent dye resorufin via mitochondrial reductase activity, which correlates with cell viability. In the first step the metabolic activity of the four isolated flavonoids was investigated, showing a dose-dependent reduction, but to a much lower extent than in the proliferation assays (Table A2). In fact, only 7,3′,4′-trimethoxymyricetin (2) inhibited the metabolic activity of all four cell lines by more than 50% at a concentration of 100 µM.

MOLM-13 cells [6] = assay: Metabolic activity, resazurin staining, MOLM-13; conditions: for Metabolic activity, mean percentage ± SE: 72 h, relative to control
Procedure: [The source words this procedure for another cell line and reports this cell line under the same test.] as §1, §2, §3

AMO-1 cells [7] = assay: Metabolic activity, resazurin staining, AMO-1; conditions: for Metabolic activity, mean percentage ± SE: 72 h, relative to control
Procedure: as §1, §2, §3

KMS-12-PE cells [8] = assay: Metabolic activity, resazurin staining, KMS-12-PE; conditions: KMS-12 PE; for Metabolic activity, mean percentage ± SE: 72 h, relative to control
Procedure: as §1, §2, §3

SMILES	mean percentage of proliferation ± SE (HL-60 cells [1]; HL-60, 50 µM) [%]	mean percentage of proliferation ± SE (HL-60 cells [1]; HL-60, 100 µM) [%]	mean percentage of proliferation ± SE (MOLM-13 cells [2]; MOLM-13, 50 µM) [%]	mean percentage of proliferation ± SE (MOLM-13 cells [2]; MOLM-13, 100 µM) [%]	mean percentage of proliferation ± SE (AMO-1 cells [3]; AMO-1, 50 µM) [%]	mean percentage of proliferation ± SE (AMO-1 cells [3]; AMO-1, 100 µM) [%]	mean percentage of proliferation ± SE (KMS-12-PE cells [4]; 50 µM) [%]	mean percentage of proliferation ± SE (KMS-12-PE cells [4]; 100 µM) [%]	Metabolic activity, mean percentage ± SE (HL-60 cells [5]; HL-60, 50 µM) [%]	Metabolic activity, mean percentage ± SE (HL-60 cells [5]; HL-60, 100 µM) [%]	Metabolic activity, mean percentage ± SE (MOLM-13 cells [6]; MOLM-13, 50 µM) [%]	Metabolic activity, mean percentage ± SE (MOLM-13 cells [6]; MOLM-13, 100 µM) [%]	Metabolic activity, mean percentage ± SE (AMO-1 cells [7]; AMO-1, 50 µM) [%]	Metabolic activity, mean percentage ± SE (AMO-1 cells [7]; AMO-1, 100 µM) [%]	Metabolic activity, mean percentage ± SE (KMS-12-PE cells [8]; 50 µM) [%]	Metabolic activity, mean percentage ± SE (KMS-12-PE cells [8]; 100 µM) [%]	mean percentage of proliferation ± SE (HL-60 cells [1]; HL-60, 25 µM) [%]	mean percentage of proliferation ± SE (MOLM-13 cells [2]; MOLM-13, 25 µM) [%]	mean percentage of proliferation ± SE (AMO-1 cells [3]; AMO-1, 25 µM) [%]	mean percentage of proliferation ± SE (KMS-12-PE cells [4]; 25 µM) [%]	also measured
COc1cc(O)c2c(=O)c(OC)c(-c3ccc(OC)c(OC)c3)oc2c1 [Compound 1, retusin]	76.0 ± 3.0	65.6 ± 3.1	76.9 ± 4.7	57.8 ± 6.8	73.5 ± 7.5	66.9 ± 7.8	85.2 ± 1.8	73.0 ± 1.9	93.0 ± 4.4	85.9 ± 1.8	88.5 ± 3.8	80.5 ± 2.6	91.4 ± 8.9	81.0 ± 4.2	100.9 ± 4.1	95.1 ± 4.5					
COc1cc(O)c2c(=O)c(O)c(-c3cc(O)c(OC)c(OC)c3)oc2c1 [Compound 2, 7,3′,4′-trimetoxymyricetin]	36.7 ± 2.5	2.5 ± 0.5	35.4 ± 4.2	3.8 ± 1.0	27.0 ± 4.0	4.8 ± 1.0	16.1 ± 0.9	2.6 ± 0.4	79.6 ± 7.0	32.1 ± 2.8	65.4 ± 3.6	48.9 ± 5.5	68.9 ± 4.1	41.8 ± 6.4	62.7 ± 2.6	44.5 ± 4.0	69.8 ± 2.5	77.8 ± 9.6	69.2 ± 5.3	64.5 ± 2.9	Metabolic activity, mean percentage ± SE (HL-60 cells [5]; HL-60, 25 µM): 93.2 ± 7.8%; inhibition at 100 µM (HL-60 cells [5]; Homo sapiens, HL-60, 100 µM): > 50%; inhibition at 100 µM (MOLM-13 cells [6]; Homo sapiens, MOLM-13, 100 µM): > 50%; Metabolic activity, mean percentage ± SE (MOLM-13 cells [6]; MOLM-13, 25 µM): 77.8 ± 2.1 %; Metabolic activity, mean percentage ± SE (AMO-1 cells [7]; AMO-1, 25 µM): 81.3 ± 6.3 %; inhibition at 100 µM (AMO-1 cells [7]; Homo sapiens, AMO1, AMO-1, 100 µM): > 50%; inhibition at 100 µM (KMS-12-PE cells [8]; Homo sapiens, 100 µM): > 50%; Metabolic activity, mean percentage ± SE (KMS-12-PE cells [8]; 25 µM): 87.9 ± 2.6 %
COc1ccc(-c2cc(=O)c3c(O)cc(O)cc3o2)cc1O [Compound 3, diosmetin]	59.9 ± 3.6	19.7 ± 3.7	11.7 ± 1.6	1.1 ± 0.4	42.0 ± 5.0	9.0 ± 0.8	38.2 ± 4.1	16.4 ± 2.4	84.5 ± 2.2	56.7 ± 3.5	51.2 ± 7.2	41.2 ± 5.0	76.8 ± 3.7	54.5 ± 5.5	81.3 ± 3.2	57.2 ± 4.7	71.4 ± 1.5	36.5 ± 2.9	65.9 ± 9.4	74.5 ± 6.9	Metabolic activity, mean percentage ± SE (HL-60 cells [5]; HL-60, 25 µM): 93.2 ± 3.1 %; Metabolic activity, mean percentage ± SE (MOLM-13 cells [6]; MOLM-13, 25 µM): 62.5 ± 10.1 %; inhibition of metabolic activity (MOLM-13 cells [6]; MOLM-13, 100 µM): induced antimetabolic activity; Metabolic activity, mean percentage ± SE (AMO-1 cells [7]; AMO-1, 25 µM): 95.4 ± 2.4 %; Metabolic activity, mean percentage ± SE (KMS-12-PE cells [8]; 25 µM): 93.7 ± 4.9%
COc1cc(O)c2c(=O)c(OC)c(-c3ccc(O)c(O)c3)oc2c1 [Compound 4, 3,7-di-O-methylquercetin]	23.3 ± 6.5	18.5 ± 4.0	13.1 ± 2.7	8.8 ± 3.1	29.7 ± 4.1	19.2 ± 5.1	50.4 ± 5.2	29.7 ± 6.0	69.8 ± 5.1	69.7 ± 5.5	63.6 ± 6.4	61.7 ± 6.9	57.1 ± 10.5	46.9 ± 11.7	92.4 ± 8.7	82.4 ± 7.7	37.6 ± 7.7	32.6 ± 5.5	57.5 ± 9.2	80.9 ± 3.2	mean percentage of proliferation ± SE (HL-60 cells [1]; HL-60, 10 µM): 45.9 ± 8.9 %; inhibition at 10 µM (HL-60 cells [1]; Homo sapiens, HL-60, 10 µM): > 50%; inhibition at 10 µM (MOLM-13 cells [2]; Homo sapiens, MOLM-13, 10 µM): > 50%; mean percentage of proliferation ± SE (MOLM-13 cells [2]; MOLM-13, 10 µM): 42.3 ± 11.2 %; mean percentage of proliferation ± SE (AMO-1 cells [3]; AMO-1, 10 µM): 73.3 ± 11.4 %; mean percentage of proliferation ± SE (KMS-12-PE cells [4]; 10 µM): 89.0 ± 5.2%; Metabolic activity, mean percentage ± SE (HL-60 cells [5]; HL-60, 10 µM): 86.1 ± 6.1 %; Metabolic activity, mean percentage ± SE (HL-60 cells [5]; HL-60, 25 µM): 80.8 ± 5.9 %; Metabolic activity, mean percentage ± SE (MOLM-13 cells [6]; MOLM-13, 10 µM): 81.1 ± 4.2 %; Metabolic activity, mean percentage ± SE (MOLM-13 cells [6]; MOLM-13, 25 µM): 77.9 ± 4.3 %; Metabolic activity, mean percentage ± SE (AMO-1 cells [7]; AMO-1, 10 µM): 91.5 ± 9.9%; Metabolic activity, mean percentage ± SE (AMO-1 cells [7]; AMO-1, 25 µM): 70.2 ± 10.8 %; inhibition of metabolic activity (AMO-1 cells [7]; AMO-1, 100 µM): induced antimetabolic activity; Metabolic activity, mean percentage ± SE (KMS-12-PE cells [8]; 10 µM): 110.1 ± 10.2%; Metabolic activity, mean percentage ± SE (KMS-12-PE cells [8]; 25 µM): 103.0 ± 9.9%

Source: PMC12388523, “Flavonoids and Sesquiterpene Lactones from Lychnophora ericoides (Arnica-Do-Cerrado) and Their In Vitro Effects on Multiple Myeloma and Acute Myeloid Leukemia” (Metabolites, 2025)
